Read-outs that look alike come from different tables or passages of the source.
Key:
[1] = test system: patients with previously untreated metastatic PDAC; details: for Overall safety and tolerability: in combination with nab-P + G, up to 200 mg twice daily
Description: Patients were ≥ 18 years of age with previously untreated metastatic PDAC (measurable per Response Evaluation Criteria in Solid Tumors [RECIST] v 1.1); and an Eastern Cooperative Oncology Group (ECOG) performance status ≤1 and adequate hematologic, renal, and hepatic function. […] All patients provided written informed consent prior to enrollment.
Screening occurred within 21 days before the first MMB dose and included medical history and prior/concomitant medication review, physical exam and assessments of vital signs, ECOG performance status, pregnancy test (females), laboratory assessment, adverse event (AE) assessment, and staging CT or MRI. MMB was given orally once or twice daily as per the assigned dosing cohort: Cohort 1–100 mg MMB once daily; Cohort 2–150 mg MMB once daily; Cohort 3–200 mg MMB once daily; Cohort 4–150 mg MMB twice daily; and Cohort 5–200 mg MMB twice daily. […] Each dose cohort consisted of 3 patients, unless a dose-limiting toxicity (DLT) was experienced during the first 28 days of treatment. If one DLT was experienced, 3 additional patients were enrolled in the dose cohort. If a second DLT was experienced in the same cohort, MTD was considered to be exceeded. Dose escalation continued from Dose Level 2 to 3 to 4 to 5 if no DLT occurred in 3 evaluable subjects or < 2 DLTs occurred in 6 evaluable patients within each dose level.
Primary endpoint was incidence of DLT(s) based on the Common Terminology Criteria for Adverse Events (CTCAE) version 4.03. Secondary endpoints were overall survival (OS) (defined as the time interval from the first dose of MMB to death from any cause; patients lost to follow-up or who survived until the end of study were censored at the last date that they were known to be alive), progression-free survival (PFS) (defined as the time interval from the first dose of MMB to the earlier of the first documentation of definitive disease progression or death from any cause), overall response rate (ORR) (proportion of patients who achieved a complete or partial response [CR or PR, respectively] during MMB therapy), and duration of response (time from CR or PR to definitive disease progression or death from any cause).
Planned enrollment was up to 30 patients based on the standard 3 + 3 design. The efficacy analyses were conducted in all enrolled patients. Safety analyses were conducted in all enrolled patients who received ≥1 dose of study treatment. Descriptive summary statistics were provided for patient characteristics and safety variables. Kaplan-Meier estimates were used for OS, PFS, duration of response, and their 95% confidence intervals (CIs). The ORR was summarized for each dose level cohort with corresponding 2-sided 95% exact CIs based on the Clopper-Pearson method.

[2] = Plasma pharmacokinetics on Cycle 1 Day 15, noncompartmental; format: in vivo, human; details: for Cmax / half-life / Tmax / AUC: human, plasma, oral
Description: Blood samples were collected from patients prior to the MMB dose and at specified time points up to 24 h post-dose on Cycle 1 Day 15. Pharmacokinetic (PK) parameters were estimated using Phoenix WinNonlin® software (Certara USA, Inc., Princeton, NJ) using standard noncompartmental methods.

[3] = all cohorts, MMB + nab-P + G, n = 25
[4] = all cohorts, MMB + nab-P + G, AE consistent with JAK1/2 inhibition

SMILES: N#CCNC(=O)c1ccc(-c2ccnc(Nc3ccc(N4CCOCC4)cc3)n2)cc1 [MMB, momelotinib]
- Dose-limiting toxicity (Grade 3 diarrhea), patients ([1]; 100 mg MMB once daily + nab-P + G): 1 patient
- Dose-limiting toxicity (Grade 3 diarrhea), patients ([1]; 200 mg MMB once daily + nab-P + G): 1 patient
- Maximum tolerated dose (MTD) ([1]; MMB up to 200 mg twice daily + nab-P + G): not reached
- Deaths due to TEAEs [1, 3]: no deaths
- Grade 3 MMB-related AE deep vein thrombosis [1, 3]: 4.0%
- Grade 3 MMB-related AE dehydration [1, 3]: 4.0%
- Grade 3 MMB-related AE diarrhea [1, 3]: 12.0%
- Grade 3 MMB-related AE fatigue [1, 3]: 4.0%
- Grade 3 MMB-related AE febrile neutropenia [1, 3]: 4.0%
- Grade 3 MMB-related AE generalized edema [1, 3]: 4.0%
- Grade 3 MMB-related AE hypertension [1, 3]: 4.0%
- Grade 3 MMB-related AE malaise [1, 3]: 4.0%
- Grade 3 MMB-related AE nephrolithiasis [1, 3]: 4.0%
- Grade 3 MMB-related AE peripheral edema [1, 3]: 4.0%
- Grade 3 MMB-related AE peripheral sensory motor neuropathy [1, 3]: 8.0%
- Grade 3 MMB-related AE polyneuropathy [1, 3]: 4.0%
- Grade 3 MMB-related AE respiratory distress [1, 3]: 4.0%
- Grade 3 MMB-related AE thrombocytopenia [1, 3]: 8.0%
- Grade 3 MMB-related AE tremor [1, 3]: 4.0%
- Grade 3 or 4 AEs considered related to MMB [1, 3]: 44%
- Grade 3 or 4 TEAEs, patients [1, 3]: 88%
- Grade 3 or 4 neutropenia, patients [1, 3]: 32%
- Grade 4 MMB-related event embolic stroke [1, 3]: 4.0%
- Grade 4 MMB-related event increased blood uric acid [1, 3]: 4.0%
- Grade 4 MMB-related event neutropenia [1, 3]: 4.0%
- Neutropenia Grade 3, patients [1, 3]: 16%
- Neutropenia Grade 4, patients [1, 3]: 16%
- Patients with at least one treatment-emergent AE (TEAE) [1, 3]: All patients
- Peripheral neuropathy attributed by investigators as related to the drug, patients [1, 3]: 16%
- Peripheral neuropathy leading to discontinuation of MMB, patients [1, 3]: 8%
- Peripheral sensory neuropathy attributed by investigators as related to the drug, patients [1, 3]: 24%
- Pneumonia Grade 3, patients [1, 3]: 24%
- SAEs considered related to MMB, patients [1, 3]: 24%
- Serious AEs (SAEs), patients [1, 3]: 72%
- TEAE abdominal pain, patients [1, 3]: 44%
- TEAE alopecia, patients [1, 3]: 40%
- TEAE anemia, patients [1, 3]: 68%
- TEAE constipation, patients [1, 3]: 52%
- TEAE decreased appetite, patients [1, 3]: 40%
- TEAE diarrhea, patients [1, 3]: 64%
- TEAE dysgeusia, patients [1, 3]: 40%
- TEAE fatigue, patients [1, 3]: 80%
- TEAE hypertension, patients [1, 3]: 36%
- TEAE nausea, patients [1, 3]: 76%
- TEAE peripheral edema, patients [1, 3]: 48%
- TEAE peripheral neuropathy, patients [1, 3]: 36%
- TEAE peripheral sensory neuropathy, patients [1, 3]: 36%
- TEAE pyrexia, patients [1, 3]: 56%
- TEAE vomiting, patients [1, 3]: 52%
- Peripheral neuropathy, predefined AE of interest, patients ([1]; all cohorts, MMB + nab-P + G, n = 25, higher incidence at the two highest dose levels): 60%
- AE neutropenia, patients [1, 4]: 32%
- AE thrombocytopenia, patients [1, 4]: 20%
- Overall safety and tolerability [1]: safe and well tolerated
- Overall safety and tolerability ([1]; listed as Momelotinib): well tolerated
- Maximum administered dose (MAD) ([1]; twice daily, + nab-P + G): 200 mg
- Increases in exposure with dose ([2]; 100-200 mg MMB): less than dose-proportional
- AUCtau, 200 mg once-daily compared with 100 mg once-daily ([2]; Cycle 1 Day 15): less than 2 fold
- Cmax, 200 mg once-daily compared with 100 mg once-daily ([2]; Cycle 1 Day 15): less than 2 fold
- Cmax ([2]; 100 mg, 100 mg MMB QD n = 6, steady state, mean (% coefficient of variation), read-out: Cmax): 258 ng/mL
- half-life ([2]; 100 mg, 100 mg MMB QD n = 6, steady state, median (first quarter, third quarter), read-out: T 1/2 (converted)): 5.4 h
- Tmax ([2]; 100 mg, 100 mg MMB QD n = 6, steady state, median (first quarter, third quarter), read-out: Tmax): 4.5 h
- AUC ([2]; 100 mg, 100 mg MMB QD n = 6, steady state, mean (% coefficient of variation)): 2000 ng·h/mL
- AUC ([2]; 150 mg, 150 mg MMB BID n = 1, steady state): 1520 ng·h/mL
- Cmax ([2]; 150 mg, 150 mg MMB BID n = 1, steady state, read-out: Cmax): 215 ng/mL
- half-life ([2]; 150 mg, 150 mg MMB BID n = 1, steady state, read-out: T 1/2 (converted)): 5 h
- Tmax ([2]; 150 mg, 150 mg MMB BID n = 1, steady state, read-out: Tmax): 3 h
- Cmax ([2]; 150 mg, 150 mg MMB QD n = 3, steady state, mean (% coefficient of variation), read-out: Cmax): 200 ng/mL
- half-life ([2]; 150 mg, 150 mg MMB QD n = 3, steady state, median (first quarter, third quarter), read-out: T 1/2 (converted)): 6.6 h
- Tmax ([2]; 150 mg, 150 mg MMB QD n = 3, steady state, median (first quarter, third quarter), read-out: Tmax): 3.2 h
- AUC ([2]; 150 mg, 150 mg MMB QD n = 3, steady state, mean (% coefficient of variation)): 1680 ng·h/mL
- Cmax ([2]; 200 mg, 200 mg MMB BID n = 3, steady state, mean (% coefficient of variation), read-out: Cmax): 330 ng/mL
- half-life ([2]; 200 mg, 200 mg MMB BID n = 3, steady state, median (first quarter, third quarter), read-out: T 1/2 (converted)): 5.5 h
- Tmax ([2]; 200 mg, 200 mg MMB BID n = 3, steady state, median (first quarter, third quarter), read-out: Tmax): 3 h
- AUC ([2]; 200 mg, 200 mg MMB BID n = 3, steady state, mean (% coefficient of variation)): 1980 ng·h/mL
- Cmax ([2]; 200 mg, 200 mg MMB QD n = 6, steady state, mean (% coefficient of variation), read-out: Cmax): 364 ng/mL
- half-life ([2]; 200 mg, 200 mg MMB QD n = 6, steady state, median (first quarter, third quarter), read-out: T 1/2 (converted)): 5.3 h
- Tmax ([2]; 200 mg, 200 mg MMB QD n = 6, steady state, median (first quarter, third quarter), read-out: Tmax): 3.5 h
- AUC ([2]; 200 mg, 200 mg MMB QD n = 6, steady state, mean (% coefficient of variation)): 3340 ng·h/mL
- half-life ([2]; Cycle 1 Day 15, across dose levels, approximately, read-out: Median terminal half-life): 5 to 6.6 h
- Tmax ([2]; Cycle 1 Day 15, across dose levels, approximately, read-out: Time to peak plasma concentration after the first dose of MMB): 3 to 4.5 h
- Cmax ([2]; across dose levels, approximately, read-out: Maximum plasma concentration (Cmax), overall): ~300 ng/mL
- Cmax ([2]; converted from approximately 300 ng/mL, read-out: Maximum plasma concentration (Cmax), overall): 720 nM

From article PMC6510909 (Investigational New Drugs, 2018)
